# Columns and labels:
# primary RGCs = assay: Primary RGC survival in neurotrophin-depleted media with kinase inhibitors (calcein AM)
# Description: To determine the neuroprotective effects of the broad-spectrum kinase inhibitors, sunitinib and VX680, primary RGCs were plated in neurotrophin-depleted media and stained with calcein AM at 72 hours in the absence (vehicle) or presence of 1 μM sunitinib (FIG. 1, Panel A).
# Retinas were isolated from postnatal 0-5-d mice and dissociated with papain. Microglia were immunodepleted with anti-CD11b conjugated Dynabeads (Life Technologies). The suspension of retinal cells was immunopanned on plates preconjugated with anti-Thy1.2 antibody (Serotec, MCA028) and goat antimouse IgM (Jackson Immunoresearch) at room temperature (RT). After washing, retinal ganglion cellS (RGCs) were released from the plate by a cell lifter, counted, and seeded at a density of 10,000 per well in 96-well plates in the media composed of Neurobasal (Life Technologies), B27, N2 supplement, Lglutamine, and penicillin/streptomycin. After a 72-h culture at 37° C., RGCs were stained with calceinAM (acetomethoxy derivate of calcein), ethidium homodimer, and Hoechst 33342. Images were taken from portions of each well with a Cellomics ArrayScan VTI HCS Reader (Thermo Fisher), and cell survival was quantified using the Cellomics Neuronal Profiling bioapplication. As indicated, RGC viability was alternatively measured by Cell-Titer-Glo (Promega) luminescence.
# RGCs = RGCs transfected with MAP3K12/MAP3K13 siRNA then plated in sunitinib or VX680, survival at 72 hours; type: cell-based, mice; details: RGCs transfected with 10 nM siRNA against MAP3K12 and MAP3K13 alone or in combination, 0, 12, 37, 111, 333, 1000 nM drug (FIG. 3F)
# Description: RGCs were transfected with 10 nM siRNA against MAP3K12 and MAP3K13 alone or in combination and then plated in 0, 12, 37, 111, 333, and 1000 nM sunitinib (FIG. 3F on left) or VX680 (FIG. 3F on right). Survival at 72 hours is shown.
structure (smiles),measurement,setting,value
Cc1cc(Nc2cc(N3CCN(C)CC3)nc(Sc3ccc(NC(=O)C4CC4)cc3)n2)n[nH]1 [VX680],survival of primary RGCs at higher doses,primary RGCs; at higher doses (FIG. 1B),greater number of viable cells
same,survival of primary RGCs in response to increasing doses,primary RGCs; increasing doses (FIG. 1B),neuroprotective
same,"cell viability, survival at 72 hours",RGCs,higher cell viability

# — patent US11180760B2, “Identification of molecular pathways and methods of use thereof for treating retinal neurodegeneration and other neurodegenerative disorders” (THE JOHNS HOPKINS UNIVERSITY, priority 2012, dated 2021)
